The values that follow come from patent US7605265B2, “Heterodimers and methods of using them” (priority 2007, dated 2009).

Each structure is given as a SMILES string.

In assay [1] the target is T1, acetylcholinesterase (AChE) (Rattus norvegicus, UniProt P37136).
T1 construct: from tissue; host or cells: rat brain cortex
T1 sequence (P37136 32-614): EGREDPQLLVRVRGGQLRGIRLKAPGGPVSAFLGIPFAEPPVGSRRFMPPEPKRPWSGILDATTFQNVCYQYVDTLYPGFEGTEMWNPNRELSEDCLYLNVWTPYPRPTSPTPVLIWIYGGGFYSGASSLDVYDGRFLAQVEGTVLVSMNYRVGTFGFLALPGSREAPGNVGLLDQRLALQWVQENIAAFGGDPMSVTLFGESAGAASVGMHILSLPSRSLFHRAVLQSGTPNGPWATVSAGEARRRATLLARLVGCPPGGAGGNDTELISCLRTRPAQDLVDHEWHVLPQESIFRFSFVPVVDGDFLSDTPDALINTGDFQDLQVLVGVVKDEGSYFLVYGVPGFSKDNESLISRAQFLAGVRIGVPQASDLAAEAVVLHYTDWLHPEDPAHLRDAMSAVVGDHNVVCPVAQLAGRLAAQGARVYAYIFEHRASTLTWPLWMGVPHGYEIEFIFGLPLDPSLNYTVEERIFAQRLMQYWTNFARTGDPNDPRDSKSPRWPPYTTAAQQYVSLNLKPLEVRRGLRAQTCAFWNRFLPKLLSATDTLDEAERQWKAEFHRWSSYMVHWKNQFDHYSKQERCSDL
The assay is described as follows: In vitro inhibition of AChE (cholinesterase assay, Ellman method). Type of assay: biochemical. As for the experimental part:
The in vitro inhibition of the enzymes acetylcholinesterase (AChE) and butyrylcholinesterase (BChE) were assessed. BChE, like AChE, breaks down acetylcholine (ACh) but is found in plasma and other organs such as the liver, skin and gastrointestinal tract.
The enzymes, AChE and BChE, used in the inhibition studies were prepared from the cortex and serum of decapitated rats, respectively.
In general terms: DTNB colorimetry detects thiols as they appear.

Assay [2] addresses T2, butyrylcholinesterase (BChE) (Rattus norvegicus, UniProt Q9JKC1).
T2 construct: from tissue; host or cells: rat serum
Description: biochemical.

Assay [3] deals with scopolamine-induced memory impaired rats. Description: Morris water maze, scopolamine-induced memory impairment. Type of assay: in vivo, rat. To be noted: tacrine 1.5 mg/kg, scopolamine 0.1 mg/kg i.p. As for the experimental part:
The Morris water maze consists of a water pool with a hidden, submerged escape platform. The rats must learn, over a period of consecutive days, the location of the platform using either contextual or local cues. The time taken to locate the hidden platform (escape latency) is a measure of the animal's cognitive abilities.
Scopolamine (0.1 mg/kg) was first i.p. administered to young adult rats to impair their memories. Scopolamine-induced memory impaired rats were then orally administered one of three different doses of compound B (0.025, 0.050, or 0.100 mg/kg) and subjected to the Morris water maze over a period of 4 days. On each day, the time taken for the rats to detect the hidden platform in the water maze was measured, in seconds.
Scopolamine (0.1 mg/kg) was first i.p. administered to young adult rats to impair their memories. Scopolamine-induced memory impaired rats were then orally administered one of three different doses of compound C (0.1, 0.2, or 0.4 mg/kg) and subjected to the Morris water maze over a period of 4 days. On each day, the time taken for the rats to detect the hidden platform in the water maze was measured, in seconds.
Scopolamine (0.1 mg/kg) was first i.p. administered to young adult rats to impair their memories. Scopolamine-induced memory impaired rats were then orally administered one of three different doses of compound A (0.1, 0.2, or 0.4 mg/kg) and subjected to the Morris water maze over a period of 4 days. On each day, the time taken for the rats to detect the hidden platform in the water maze was measured, in seconds.
A spatial bias (% of total distance swum in the training quadrant during spatial probe trial) for the region of the apparatus where the platform was positioned during training was also measured for compounds B and C.
The spatial bias for the region of the testing apparatus where the hidden platform was positioned during training was measured. […] Tacrine (THA) was included for comparison purposes.

T2 sequence (Q9JKC1 24-597): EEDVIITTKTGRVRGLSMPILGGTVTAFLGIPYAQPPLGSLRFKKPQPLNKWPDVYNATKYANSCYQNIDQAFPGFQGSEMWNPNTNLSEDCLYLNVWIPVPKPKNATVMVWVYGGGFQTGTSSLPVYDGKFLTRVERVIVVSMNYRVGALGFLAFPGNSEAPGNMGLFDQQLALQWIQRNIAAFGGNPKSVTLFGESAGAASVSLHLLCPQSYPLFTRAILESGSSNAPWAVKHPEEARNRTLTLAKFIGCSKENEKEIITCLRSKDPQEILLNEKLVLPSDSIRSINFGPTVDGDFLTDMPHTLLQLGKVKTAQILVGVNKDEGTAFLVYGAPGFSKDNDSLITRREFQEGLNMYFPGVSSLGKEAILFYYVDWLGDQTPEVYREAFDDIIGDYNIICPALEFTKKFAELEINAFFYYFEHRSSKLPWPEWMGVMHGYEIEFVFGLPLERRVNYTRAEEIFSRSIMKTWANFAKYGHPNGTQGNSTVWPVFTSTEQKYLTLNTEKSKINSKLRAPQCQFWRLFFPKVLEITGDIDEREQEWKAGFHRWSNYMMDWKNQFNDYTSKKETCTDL

For orientation: IC50 means the concentration needed to halve the response being measured. Low values mean greater potency in that assay, high ones weaker potency in that assay. On to `O=c1ccc2c([nH]1)CCCC2NCCCCCCCCNc1c2c(nc3ccccc13)CCCC2` (stereo not shown) [Compound D], for which, in assay [1] (IC50 (BChE)/IC50 (AChE)), the “Selectivity AchE*” value is reported as 31.52. Besides, the IC50 in assay [1] (enzyme prepared from rat cortex) came to 13.6 ± 1.76 nM; in assay [2], 430 ± 46.7 nM.

For `Nc1c2c(nc3ccccc13)CCCC2` [Tacrine, reference compound], the “escape latency, compared with the novel compound” value in assay [3] is recorded as “less effective in shortening escape latency”.
